# In US20110130380A1, “Heteroaryl Kinase Inhibitors” (priority 2009, published 2011):
# Biological target: Cdk9/cyclinT1 (Homo sapiens, UniProt P50750)
# Test: Cdk9/cyclinT1 IMAP Protocol (fluorescence polarization kinase assay)
# Details: Cdk9_cyclinT1_IC50, Table V; generated using one of the two Cdk9/cyclinT1 assays (IMAP or Alpha Screen), not stated which; ATP 6 uM
# Cdk9/cyclinT1, sequence (P50750 whole entry): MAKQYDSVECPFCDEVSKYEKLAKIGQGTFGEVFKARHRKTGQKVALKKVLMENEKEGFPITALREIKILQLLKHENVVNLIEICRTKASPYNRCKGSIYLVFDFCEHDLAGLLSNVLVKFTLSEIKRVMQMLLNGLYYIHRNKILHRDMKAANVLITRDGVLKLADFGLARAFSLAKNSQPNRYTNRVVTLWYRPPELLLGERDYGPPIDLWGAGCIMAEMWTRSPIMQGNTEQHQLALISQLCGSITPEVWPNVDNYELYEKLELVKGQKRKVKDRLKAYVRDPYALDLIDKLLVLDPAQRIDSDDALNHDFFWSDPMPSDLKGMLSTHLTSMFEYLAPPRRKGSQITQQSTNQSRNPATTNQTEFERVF
# Cdk9/cyclinT1, sequence (O60563 whole entry partner): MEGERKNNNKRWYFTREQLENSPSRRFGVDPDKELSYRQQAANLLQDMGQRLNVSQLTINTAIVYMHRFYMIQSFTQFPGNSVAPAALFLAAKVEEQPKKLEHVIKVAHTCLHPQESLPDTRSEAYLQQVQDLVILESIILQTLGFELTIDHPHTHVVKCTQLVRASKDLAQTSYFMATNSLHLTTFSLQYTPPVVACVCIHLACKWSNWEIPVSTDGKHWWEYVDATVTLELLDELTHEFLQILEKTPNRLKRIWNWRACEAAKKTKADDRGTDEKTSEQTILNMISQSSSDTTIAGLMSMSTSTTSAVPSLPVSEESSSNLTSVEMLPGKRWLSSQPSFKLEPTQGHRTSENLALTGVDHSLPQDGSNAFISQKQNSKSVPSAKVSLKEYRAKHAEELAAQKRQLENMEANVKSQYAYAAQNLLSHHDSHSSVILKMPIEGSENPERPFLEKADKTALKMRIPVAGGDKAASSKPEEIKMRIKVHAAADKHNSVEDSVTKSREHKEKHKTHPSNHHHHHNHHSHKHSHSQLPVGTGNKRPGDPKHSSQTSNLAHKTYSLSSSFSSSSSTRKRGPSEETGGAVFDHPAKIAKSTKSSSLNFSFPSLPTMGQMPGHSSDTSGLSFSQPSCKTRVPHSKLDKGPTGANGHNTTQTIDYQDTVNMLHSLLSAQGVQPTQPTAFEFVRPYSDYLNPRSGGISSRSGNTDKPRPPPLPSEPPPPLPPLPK
row,IC50 [nM],SMILES
1,1,"O=C(Nc1cc(-c2nc(NCC3CCOCC3)ccc2F)c(Cl)cn1)[C@@H]1CCCNC1 [Example 157, (R)-Piperidine-3-carboxylic acid {5′-chloro-3-fluoro-6-[(tetrahydro-pyran-4-ylmethyl)-amino]-[2,4′]bipyridinyl-2′-yl}-amide]"
2,151,"C[C@@H]1CC[C@H](C(=O)Nc2cc(-c3cccc(NCC4CCOCC4)n3)c(Cl)cn2)CN1 (single isomer, unassigned) [Example 142]"
3,< 8,O=C(Nc1cc(-c2nc(NCC3CCOCC3)ccc2Cl)c(Cl)cn1)[C@@H]1CCCNC1 [Example 75]
4,< 8,"CC1(C)CC(CNc2cccc(-c3cc(NC(=O)[C@H]4CNCCO4)ncc3Cl)n2)CCO1 (stereo partly drawn) [Example 120, (R)-Morpholine-2-carboxylic acid {5′-chloro-6-[(2,2-dimethyl-tetrahydro-pyran-4-ylmethyl)-amino]-[2,4′]bipyridinyl-2′-yl}-amide]"
5,23,"O=C(Nc1cc(-c2cccc(NCC3CCOCC3)n2)c(Cl)cn1)[C@@H]1CNC[C@H](F)C1 [Example 176, (3S,5R)-5-Fluoro-piperidine-3-carboxylic acid {5′-chloro-6-[(tetrahydro-pyran-4-ylmethyl)-amino]-[2,4′]bipyridinyl-2′-yl}-amide]"
6,9,"CC(C)CCNc1cccc(-c2cc(NC(=O)[C@@H]3CCCNC3)ncc2Cl)n1 [Example 23, (R)-Piperidine-3-carboxylic acid [5′-chloro-6-(3-methyl-butylamino)-[2,4′]bipyridinyl-2′-yl]-amide]"
7,< 8,"CC1(C)C[C@H](CNc2cccc(-c3cc(NC(=O)[C@H]4CNCCO4)ncc3Cl)n2)CCO1 (single isomer, unassigned) [Example 130]"
8,< 8,"COC(=O)N1CCC[C@H](C(=O)Nc2cc(-c3nc(NCC4CCOC(C)(C)C4)ccc3Cl)c(Cl)cn2)C1 (stereo partly drawn) [Example 140, (S)-3-{3,5′-Dichloro-6-[(2,2-dimethyl-tetrahydro-pyran-4-ylmethyl)-amino]-[2,4′]bipyridinyl-2′-ylcarbamoyl}-piperidine-1-carboxylic acid methyl ester]"
9,76,"CNc1cccc(-c2cc(NC(=O)[C@@H]3CCCNC3)ncc2Cl)n1 [Example 21, (R)-Piperidine-3-carboxylic acid (5′-chloro-6-methylamino-[2,4′]bipyridinyl-2′-yl)-amide]"
10,8,"O=C(Nc1cc(-c2nc(NCC3CCOCC3)ccc2Cl)c(Cl)cn1)[C@H]1CNCCO1 [Example 101, (R)-Morpholine-2-carboxylic acid {3,5′-dichloro-6-[(tetrahydro-pyran-4-ylmethyl)-amino]-[2,4′]bipyridinyl-2′-yl}-amide]"
11,1,"N#CC1(CNc2cccc(-c3cc(NC(=O)[C@@H]4CCCNC4)ncc3Cl)n2)CCOCC1 [Example 238, (R)-Piperidine-3-carboxylic acid {5′-chloro-6-[(4-cyano-tetrahydro-pyran-4-ylmethyl)-amino]-[2,4′]bipyridinyl-2′-yl}-amide]"
12,1,"CC1(C)C[C@@H](CNc2cccc(-c3cc(NC(=O)[C@@H]4CCNC4)ncc3Cl)n2)CCO1 [Example 260, (R)-Pyrrolidine-3-carboxylic acid {5′-chloro-6-[((S)-2,2-dimethyl-tetrahydro-pyran-4-ylmethyl)-amino]-[2,4′]bipyridinyl-2′-yl}-amide]"

# Second part, the compound before the results:
row,SMILES,IC50 [nM]
1,"O=C(Nc1cc(-c2cccc(NCC3(F)CCOCC3)n2)c(Cl)cn1)[C@@H]1CCCNC1 [Example 237, (R)-Piperidine-3-carboxylic acid {5′-chloro-6-[(4-fluoro-tetrahydro-pyran-4-ylmethyl)-amino]-[2,4′]bipyridinyl-2′-yl}-amide]",1
2,"O=C(Nc1cc(-c2cccc(NCC3CCOCC3)n2)c(Cl)cn1)[C@@H]1CNC[C@@H](C(F)(F)F)C1 (single isomer, unassigned) [Example 163]",129
3,"O=C(Nc1cc(-c2cccc(NCC3CCOCC3)n2)c(Cl)cn1)[C@H]1CCCO1 [Example 68, (R)-Tetrahydro-furan-2-carboxylic acid {5′-chloro-6-[(tetrahydro-pyran-4-ylmethyl)-amino]-[2,4′]bipyridinyl-2′-yl}-amide]",11
4,"COC(=O)N1CCC[C@H](C(=O)Nc2cc(-c3nc(N[C@H](C)C4CCOCC4)ccc3Cl)c(Cl)cn2)C1 [Example 153, (S)-3-{3,5′-Dichloro-6-[(R)-1-(tetrahydro-pyran-4-yl)-ethylamino]-[2,4′]bipyridinyl-2′-ylcarbamoyl}-piperidine-1-carboxylic acid methyl ester]",26
5,"COC[C@@H]1C[C@@H](C(=O)Nc2cc(-c3ccc(F)c(NCC4(OC)CCOCC4)n3)c(Cl)cn2)CN1 [Example 253, (3R,5S)-5-Methoxymethyl-pyrrolidine-3-carboxylic acid {5′-chloro-5-fluoro-6-[(4-methoxy-tetrahydro-pyran-4-ylmethyl)-amino]-[2,4′]bipyridinyl-2′-yl}-amide]",1
6,"CC[C@H]1CC[C@H](C(=O)Nc2cc(-c3cccc(NCC4CCOCC4)n3)c(Cl)cn2)CN1 (single isomer, unassigned) [Example 241]",9
7,"CC1(C)CO[C@H](CNc2nc(-c3cc(NC(=O)[C@@H]4CCCNC4)ncc3Cl)ccc2F)CO1 (single isomer, unassigned) [Example 265]",1
8,"O=C(Nc1cc(-c2cccc(NCC3CCOCC3)n2)c(Cl)cn1)C1CNCCO1 (centres unmarked) [Example 13, Morpholine-2-carboxylic acid {5′-chloro-6-[(tetrahydro-pyran-4-ylmethyl)-amino]-[2,4′]bipyridinyl-2′-yl}-amide]",16
9,"O=C(Nc1cc(-c2cccc(NCC3CCOCC3)n2)c(Cl)cn1)C1(F)CCCNC1 (single isomer, unassigned) [Example 118]",214
10,"COC(=O)N1CCC[C@H](C(=O)Nc2cc(-c3nc(NC[C@H]4CCOC(C)(C)C4)ccc3Cl)c(Cl)cn2)C1 (single isomer, unassigned) [Example 175]",2
11,"O=C(Nc1cc(-c2cccc(NCC3CCOCC3)n2)c(Cl)cn1)[C@H]1CNC[C@H]1F [Example 85, (3R,4S)-4-Fluoro-pyrrolidine-3-carboxylic acid {5′-chloro-6-[(tetrahydro-pyran-4-ylmethyl)-amino]-[2,4′]bipyridinyl-2′-yl}-amide]",16
12,"O=C(Nc1cc(-c2cccc(N3CCC(c4ccccc4)CC3)n2)c(Cl)cn1)[C@@H]1CCCNC1 [Example 42, (R)-Piperidine-3-carboxylic acid (5″- chloro-4-phenyl-3,4,5,6-tetrahydro-2H-[1,2′;6′,4″]terpyridin-2″- yl)-amide]",42
13,"C[C@H](Nc1cccc(-c2cc(NC(=O)[C@@H]3CCCNC3)ncc2Cl)n1)C1CCCCC1 [Example 77, (R)-Piperidine-3-carboxylic acid [5′-chloro-6-((S)-1-cyclohexyl-ethylamino)-[2,4′]bipyridinyl-2′-yl]-amide]",8
14,"CC1(C)CCC(C(=O)Nc2cc(-c3cccc(NCC4CCOCC4)n3)ccn2)CN1 (centres unmarked) [Example 195, 6,6-Dimethyl-N-(6-(((tetrahydro-2H-pyran-4-yl)methyl)amino)-2,4′-bipyridin-2′-yl)piperidine-3-carboxamide]",2
15,"O=C(Nc1cc(-c2cccc(NCC3CCOCC3)n2)c(Cl)cn1)[C@H]1CNC[C@H](C(F)(F)F)C1 (racemic) [Example 149, (3R,5R)-/(3S,5S)-5-Trifluoromethyl-piperidine-3-carboxylic acid {5′-chloro-6-[(tetrahydro-pyran-4-ylmethyl)-amino]-[2,4′]bipyridinyl-2′-yl}-amide]",31
16,"COC1(CNc2ccc(Cl)c(-c3cc(NC(=O)[C@@H]4CCCNC4)ncc3Cl)n2)CCOCC1 [Example 192, (R)-Piperidine-3-carboxylic acid {3,5′-dichloro-6-[(4-methoxy-tetrahydro-pyran-4-ylmethyl)-amino]-[2,4′]bipyridinyl-2′-yl}-amide]",1
17,"O=C(Nc1cc(-c2cccc(NCC3CCOCC3)n2)c(Cl)cn1)[C@@H]1CCCN1 [Example 58, (S)-Pyrrolidine-2-carboxylic acid {5′-chloro-6-[(tetrahydro-pyran-4-ylmethyl)-amino]-[2,4′]bipyridinyl-2′-yl}-amide]",116
18,"O=C(Nc1cc(-c2cccc(NCc3ccccc3)n2)c(Cl)cn1)[C@@H]1CCCNC1 [Example 39, (R)-Piperidine-3-carboxylic acid (6-benzylamino-5′-chloro-[2,4′]bipyridinyl-2′-yl)-amide]",< 8
19,"COC(=O)N1CCC[C@H](C(=O)Nc2cc(-c3nc(NCC4CCOCC4)ccc3Cl)c(Cl)cn2)C1 [Example 105, (S)-3-{3,5′-Dichloro-6-[(tetrahydro-pyran-4-ylmethyl)-amino]-[2,4′]bipyridinyl-2′-ylcarbamoyl}-piperidine-1-carboxylic acid methyl ester]",< 8
20,"C[C@@H]1CNC[C@H](C(=O)Nc2cc(-c3cccc(NCC4CCOCC4)n3)c(Cl)cn2)C1 (racemic) [Example 125, (3R,5S)-/(3S,5R)-5-Methyl-piperidine-3-carboxylic acid {5′-chloro-6-[(tetrahydro-pyran-4-ylmethyl)-amino]-[2,4′]bipyridinyl-2′-yl}-amide]",9
21,"CC1(C)C[C@@H](CNc2ccc(Cl)c(-c3cc(NC(=O)[C@H]4CNCCO4)ncc3Cl)n2)CCO1 (single isomer, unassigned) [Example 155]",1

# Same assay, conditions: Cdk9_cyclinT1_IC50, generated using one of the two Cdk9/cyclinT1 assays (IMAP or Alpha Screen), not specified per value; ATP 6 uM
row,IC50 [nM],SMILES
1,25,"CC(C)(C)OC(=O)N1CCC[C@@H](C(=O)Nc2cc(-c3cnc(Cl)c(NCC4CCOCC4)c3)c(Cl)cn2)C1 [Example 303, (R)-3-{6,5′-Dichloro-5-[(tetrahydro-pyran-4-ylmethyl)-amino]-[3,4′]bipyridinyl-2′-ylcarbamoyl}-piperidine-1-carboxylic acid tert-butyl ester]"
2,< 8,"O=C(Nc1cc(-c2cnc(Cl)c(NCC3CCOCC3)c2)c(Cl)cn1)[C@@H]1CCCNC1 [Example 302, (R)-Piperidine-3-carboxylic acid {6,5′-dichloro-5-[(tetrahydro-pyran-4-ylmethyl)-amino]-[3,4′]bipyridinyl-2′-yl}-amide]"
